Results from patent publication US9182397B2, “Immunoassay for detecting antibiotics” (DSM IP ASSETS B.V., priority 2011, dated 2015).

Assays:
[1] = tested on: Penicillin binding protein purified from Bacillus stearothermophilus; assay: Lateral flow test strip, penicillin G in spiked milk (Example 3); design: key to Intensity of the detection zone: 0: no intensity; 1: low intensity; 2: medium intensity; 3: high intensity
Experimental: (§1) A nitrocellulose HF90 membrane (Millipore; length 25 mm) was used as a detection region. The membrane was glued to a polystyrene laminated card (thickness 0.254 mm) 8 mm from the proximal end of the card. Next, the detection zone and control zone were applied onto the nitrocellulose membrane. The detection zone was applied by dispensing 1 mg/ml of a 7ACA-spacer-BSA conjugate in 20 mM KPO4-buffer (pH 7.5) with a Biodot Dispense workstation XYZ 3050 with frontline at 0.2 μl/cm. The control zone was applied by dispensing 0.15 mg/ml of an anti-IgY antibody in 20 mM KPO4-buffer (pH 7.5) comprising 0.675 mg/ml BSA, 5% w/v saccharose and 20 mM NaCl with a Biodot Dispense workstation XYZ 3050 with frontline at 0.8 μl/cm. After drying of the zones, the nitrocellulose membrane was blocked by spraying a solution comprising 10 mM Tris buffer (pH 8) comprising 2% w/v BSA and 0.05% w/v Tween-20 using a Biodot Dispense workstation XYZ 3050 with airjet 3×. The solution was sprayed onto the membrane at a distance of 2 mm below the detection zone. Thereafter, the sample receiving region (VF2 membrane from Millipore; length 1 cm) was glued at the proximal end of the card overlapping 2 mm with the nitrocellulose membrane. The absorbing region (10038 membrane from Millipore; length 20 mm) was glued at the distal end of the card with an overlap of 2 mm on the nitrocellulose membrane. The obtained cards were dried at 37° C. in a dry atmosphere (0% relative humidity). The card was cut in strips of 5.2 mm width and kept at a dry atmosphere (0% relative humidity).
(§2) Streptavidin-coated gold particles were synthesized by reacting colloidal gold (diameter 40 nm; 1 OD/ml) with 10 μg/ml streptavidin. Next, the obtained solution was concentrated by tangential flow filtration, washed and stored in a Tris buffer (pH 8) including NaCN. Penicillin binding protein purified from Bacillus stearothermophilus was biotinylated (1:4) with D-biotinyl-epsilon-aminocaproic acid-N-hydroxysuccinimide ester. Next, the penicillin binding protein-gold conjugate was synthesized by reacting 1.5 μg biotinylated penicillin binding protein with 1 OD streptavidin-coated gold particles for 1 hour, followed by centrifugation at 10,000×g for 5 minutes and resuspension of the obtained pellet in 45 mM bicarbonate buffer comprising 0.1% w/v Triton X-100 (pH 9.6).
IgY-coated gold particles were synthesized by reacting colloidal gold (diameter 40 nm; 1 OD/ml with 10 μg/ml IgY. Next, the obtained solution was centrifuged at 7,500×g for 10 minutes and the obtained pellet was resuspended in a Tris buffer (pH 8), washed by another round of centrifugation and resuspension of the obtained pellet in a Tris buffer (pH 8) and stored in a Tris-buffer (pH 8) including NaCN.
(§3) Thereafter, 140-200 mOD of the penicillin binding protein-gold conjugate and 5-20 mOD of the IgY-gold conjugate was solubilized in 100 μl buffer (80 mM Tris buffer comprising 0.01% w/v Triton-X-100, 0.4% w/v BSA, 5% v/v glycerin and 2% w/v saccharose (pH 8.5)) and 0.75 μl of the solution was dispensed per tube and dried for 12 hours at 40° C. The obtained tubes were sealed.
(§4) 150 μl of spiked milk was added per tube containing the dried conjugates. The concentration of penicillin G in the added milk varied from 0 to 4 ng/g (tube 1: 0 ng/g; […]; tube 2: 2 ng/g; tube 3: 3 ng/g; and tube 4: 4 ng/g). The obtained liquid composition was incubated for 2 minutes at 64° C. in an incubator. A test device was put into the tube and incubated for 3 minutes at 64° C. in the incubator. The result was read by eye.

[2] = tested on: Penicillin binding protein purified from Bacillus stearothermophilus; assay: Detection of Penicillin G after different shaking steps (Example 28); design: key: 0: no intensity; 1: low intensity; 2: medium intensity; 3: high intensity
Experimental: as §1, §2, §3, §4
The test was done essentially as described in Example 3, with the proviso that different shaking steps were applied. […]

[3] = tested on: Penicillin binding protein purified from Bacillus stearothermophilus; assay: Detection of Penicillin G, test done at different temperatures (Example 29); design: key: 0: no intensity; 1: low intensity; 2: medium intensity; 3: high intensity
Experimental: as §1, §2, §3, §4
The test was done essentially as described in Example 3, with the proviso that the test was done at different temperatures (4° C., 20° C. or 31.5° C.).

[4] = tested on: Penicillin binding protein purified from Bacillus stearothermophilus; assay: Detection of Penicillin G with milk having a different initial temperature (Example 30); design: key: 0: no intensity; 1: low intensity; 2: medium intensity; 3: high intensity
Experimental: as §1, §2, §3, §4
The test was done essentially as described in Example 3, with the proviso that the test was done with milk having an initial different temperature (0° C., 4° C., 20° C. or 45° C.). The milk was allowed to reach room temperature shortly before the test was done.

- Intensity of the detection zone compared with the intensity of the control zone ([1]; Penicillin G 1 ng/g in milk): clearly higher
- Intensity of the detection zone ([1]; Penicillin G 1 ng/g in spiked milk, read by eye): 3
- Signal intensity of the detection zone compared with the signal intensity of the control zone ([1]; Penicillin G 2 ng/g in milk): similar
- Intensity of the detection zone ([1]; Penicillin G 2 ng/g in spiked milk, read by eye): 2
- Signal intensity of the detection zone compared with the signal intensity of the control zone ([1]; Penicillin G 3 ng/g in milk): similar
- Intensity of the detection zone ([1]; Penicillin G 3 ng/g in spiked milk, read by eye): 2
- Intensity of the detection zone compared with the intensity of the control zone ([1]; Penicillin G 4 ng/g in milk): significantly lower
- Intensity of the detection zone ([1]; Penicillin G 4 ng/g in spiked milk, read by eye): 1
- Concentration in the milk at which the signal of the detection zone clearly was less intense ([1]; spiked milk, read by eye): ≥ 2 ng/g
- Intensity of detection zone ([2]; Pen G 3 ppb, Method a, no shaking steps (0 ppb gave 2, control zone 1)): 1
- Intensity of detection zone ([2]; Pen G 3 ppb, Method b, one shaking step (10 seconds) after incubation): 2
- Intensity of detection zone ([2]; Pen G 3 ppb, Method c, one shaking step (10 seconds) before incubation): 2
- Intensity of detection zone ([2]; Pen G 3 ppb, Method d, shaking 5 seconds before and 10 seconds after incubation): 2
- Intensity of detection zone ([2]; Pen G 3 ppb, Method e, shaking 10 seconds before and 10 seconds after incubation): 2
- Intensity of detection zone ([2]; Pen G 4 ppb, Method a, no shaking steps (0 ppb gave 2, control zone 1)): 1
- Intensity of detection zone ([2]; Pen G 4 ppb, Method b, one shaking step (10 seconds) after incubation): 1
- Intensity of detection zone ([2]; Pen G 4 ppb, Method c, one shaking step (10 seconds) before incubation): 1
- Intensity of detection zone ([2]; Pen G 4 ppb, Method d, shaking 5 seconds before and 10 seconds after incubation): 1
- Intensity of detection zone ([2]; Pen G 4 ppb, Method e, shaking 10 seconds before and 10 seconds after incubation): 1
- Intensity of detection zone ([3]; Pen G 3 ppb, test done at temperature 4 ° C.): 2
- Intensity of detection zone ([3]; Pen G 3 ppb, test done at temperature 20 ° C.): 2
- Intensity of detection zone ([3]; Pen G 3 ppb, test done at temperature 31.5 ° C.): 2
- Intensity of detection zone ([3]; Pen G 4 ppb, test done at temperature 4 ° C.): 1
- Intensity of detection zone ([3]; Pen G 4 ppb, test done at temperature 20 ° C.): 1
- Intensity of detection zone ([3]; Pen G 4 ppb, test done at temperature 31.5 ° C.): 1
- Intensity of detection zone ([4]; Pen G 3 ppb, initial milk temperature 0 ° C.): 2
- Intensity of detection zone ([4]; Pen G 3 ppb, initial milk temperature 4 ° C.): 2
- Intensity of detection zone ([4]; Pen G 3 ppb, initial milk temperature 20 ° C.): 2
- Intensity of detection zone ([4]; Pen G 3 ppb, initial milk temperature 45 ° C.): 2
- Intensity of detection zone ([4]; Pen G 4 ppb, initial milk temperature 0 ° C.): 1
- Intensity of detection zone ([4]; Pen G 4 ppb, initial milk temperature 4 ° C.): 1
- Intensity of detection zone ([4]; Pen G 4 ppb, initial milk temperature 20 ° C.): 1
- Intensity of detection zone ([4]; Pen G 4 ppb, initial milk temperature 45 ° C.): 1
SMILES: CC1(C)S[C@@H]2[C@H](NC(=O)Cc3ccccc3)C(=O)N2[C@H]1C(=O)O [Penicillin G]
